Laboratory results: patent US20260042764A1, “COMPOSITIONS AND METHODS FOR INHIBITION OF KRAS” (TheRas, Inc., priority 2022, published 2026)

Key:
[1] = molecular target: T1, Avi-KRAS G12D (1-169) GppNHp/RAF1 RBD-3xFLAG (52-151) (Homo sapiens, UniProt P01116, G12D); assay: Raf1-KRAS G12D-GppNHP disruption HTRF assay (Biological Example 1); format: binding
T1 construct: Avi-KRAS G12D (1-169)
In short: (§1)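 Protein mix, 1 h RT, 700 rpm; reagent mix, 1 h RT, 700 rpm; HTRF read. Buffer Tris pH 7.5/NaCl/MgCl2/BSA/Tween, 10% DMSO. Output % activity, DMSO = 100%.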

[2] = molecular target: T2, Avi-KRAS G12R (1-169) GppNHp/RAF1 RBD-3xFLAG (52-151) (Homo sapiens, UniProt P01116, G12R); assay: Raf1-KRAS G12R-GppNHP disruption HTRF assay (Biological Example 1); format: binding
T2 construct: Avi-KRAS G12R (1-169)
In short: as §1

GP2d cells (KRAS G12D) = assay: Cell-based pERK HTRF assay in GP2d cell (Biological Example 2); conditions: GP2d, GP2d (KRAS G12D) cells, pERK HTRF
In short: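 Phospho-ERK is measured by HTRF following a 60 min compound exposure at 0.25% DMSO, with a 9-point half-log curve topping at 1 μM or 100 nM.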

SW620 cells (KRAS G12V) = assay: Cell-based pERK HTRF assay in SW620 cell (Biological Example 4); conditions: Homo sapiens, SW-620, SW620 (KRAS G12V) cells, pERK HTRF
In short: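 SW620 seeded in RPMI/10% FBS, next day dosed 4 h (top 1 μM, half-log, 9 pts, 0.25% DMSO). Lysed, pERK by d2/Eu cryptate HTRF, 4–24 h RT, 615 nm read.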

[3] = molecular target: T3, Avi-KRAS WT (1-169) GppNHp/RAF1 RBD-3xFLAG (52-151) (Homo sapiens, UniProt P01116); assay: Raf1-KRAS WT-GppNHP disruption HTRF assay (Biological Example 1); format: binding
T3 construct: Avi-KRAS WT (1-169)
In short: as §1

[4] = molecular target: T4, Avi-KRAS G12V (1-169) GppNHp/RAF1 RBD-3xFLAG (52-151) (Homo sapiens, UniProt P01116, G12V); assay: Raf1-KRAS G12V-GppNHP disruption HTRF assay (Biological Example 1); format: binding
T4 construct: Avi-KRAS G12V (1-169)
In short: as §1

[5] = KRAS G12D, GppNHp-loaded, class symbols
[6] = KRAS G12R, GppNHp-loaded, class symbols
[7] = KRAS WT, GppNHp-loaded, class symbols
[8] = KRAS G12V, GppNHp-loaded, class symbols

T2 sequence (P01116 1-169 isoform P01116-2 G12R): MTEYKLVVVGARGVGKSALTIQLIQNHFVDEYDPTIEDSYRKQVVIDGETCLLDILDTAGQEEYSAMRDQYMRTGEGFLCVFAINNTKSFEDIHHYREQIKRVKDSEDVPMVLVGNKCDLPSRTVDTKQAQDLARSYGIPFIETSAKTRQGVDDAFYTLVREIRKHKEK
T3 sequence (P01116 1-169 isoform P01116-2): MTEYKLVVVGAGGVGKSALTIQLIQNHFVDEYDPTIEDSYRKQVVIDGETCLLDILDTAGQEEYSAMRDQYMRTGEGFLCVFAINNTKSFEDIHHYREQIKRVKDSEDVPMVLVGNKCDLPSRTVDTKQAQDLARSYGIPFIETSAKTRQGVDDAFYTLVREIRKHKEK
T4 sequence (P01116 1-169 isoform P01116-2 G12V): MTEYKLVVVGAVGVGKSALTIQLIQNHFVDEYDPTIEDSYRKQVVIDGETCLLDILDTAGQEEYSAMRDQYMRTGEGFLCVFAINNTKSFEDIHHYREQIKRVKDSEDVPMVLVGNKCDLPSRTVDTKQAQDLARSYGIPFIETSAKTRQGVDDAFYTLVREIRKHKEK
T1 sequence (P01116 1-169 isoform P01116-2 G12D): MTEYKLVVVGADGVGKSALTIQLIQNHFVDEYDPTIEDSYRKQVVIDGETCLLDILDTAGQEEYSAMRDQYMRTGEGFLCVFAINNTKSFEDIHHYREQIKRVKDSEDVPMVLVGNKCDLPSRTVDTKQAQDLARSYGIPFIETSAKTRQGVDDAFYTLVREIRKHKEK

SMILES | IC50 ([1]; KRAS G12D-GppNHp/RAF1 RBD HTRF) | IC50 ([2]; KRAS G12R-GppNHp/RAF1 RBD HTRF) | IC50 (GP2d cells (KRAS G12D)) | IC50 (SW620 cells (KRAS G12V)) | IC50 ([3]; KRAS WT-GppNHp/RAF1 RBD HTRF) | IC50 ([4]; KRAS G12V-GppNHp/RAF1 RBD HTRF) | IC50 [1, 5] | IC50 [2, 6] | IC50 (GP2d cells (KRAS G12D); class symbols) | IC50 (SW620 cells (KRAS G12V); class symbols) | IC50 [3, 7] | IC50 [4, 8]
CCN(c1nc(OC[C@@]23CCCN2C[C@H](F)C3)nc2c(F)c(-c3ccc(F)c4sc(N)c(C#N)c34)c(C(F)(F)F)cc12)[C@H]1CCN(C(=O)C(C)(C)C)C1 (atropisomer, axis not shown) [Compound 562] | < 100 nM | < 100 nM | < 100 nM | < 100 nM | < 100 nM | 100 to 1000 nM |  |  |  |  |  | 
CCN(c1nc(OC[C@@]23CCCN2C[C@H](F)C3)nc2c(F)c(-c3ccc(F)c4sc(N)c(C#N)c34)c(C(F)(F)F)cc12)[C@H]1CCN(C(=O)OC2CC(OC)C2)C1 (stereo partly drawn) [Compound 791] |  |  |  |  |  |  | < 100 nM | < 100 nM | < 100 nM | < 100 nM | < 100 nM | < 100 nM
CC(=O)N1C[C@H]2OCCN(c3nc(OC[C@@]45CCCN4C[C@H](F)C5)nc4c(F)c(-c5ccc(F)c6sc(N)c(C#N)c56)c(C(F)(F)F)cc34)[C@H]2C1 [Compound 480] | 1000 to 10000 nM | 1000 to 10000 nM | < 100 nM | < 100 nM | 1000 to 10000 nM | 1000 to 10000 nM |  |  |  |  |  | 
CN(c1nc(OC[C@@]23CCCN2C[C@H](F)C3)nc2c(F)c(-c3ccc(F)c4sc(N)c(C#N)c34)c(C(F)(F)F)cc12)[C@H]1CCCOC1 [Compound 280] | 100 to 1000 nM | 100 to 1000 nM | < 100 nM | < 100 nM | 100 to 1000 nM | 100 to 1000 nM |  |  |  |  |  | 
CN(C)C(=O)c1cc2n(n1)CCN(c1nc(OC[C@@]34CCCN3C[C@H](F)C4)nc3c(F)c(-c4ccc(F)c5sc(N)c(C#N)c45)c(C(F)(F)F)cc13)CC2 [Compound 426] | 1000 to 10000 nM | 1000 to 10000 nM | 100 to 1000 nM | 100 to 1000 nM | 1000 to 10000 nM | 1000 to 10000 nM |  |  |  |  |  | 
CCN(c1nc(OC[C@@]23CCCN2C[C@H](F)C3)nc2c(F)c(-c3ccc(F)c4sc(N)c(C#N)c34)c(C(F)(F)F)cc12)[C@@H]1C[C@H](C)N(C(=O)N(C)C)C1 (atropisomer, axis not shown) [Compound 545] | 100 to 1000 nM | 1000 to 10000 nM | < 100 nM | < 100 nM | 100 to 1000 nM | 1000 to 10000 nM |  |  |  |  |  | 
N#Cc1c(N)sc2c(F)ccc(-c3c(C(F)(F)F)cc4c(N5CCCN6C(=O)CC[C@H]6C5)nc(OC[C@@]56CCCN5C[C@H](F)C6)nc4c3F)c12 [Compound 487] | 100 to 1000 nM | 1000 to 10000 nM | < 100 nM | < 100 nM | 100 to 1000 nM | 1000 to 10000 nM |  |  |  |  |  | 

Second part, the molecule after the results:

IC50 ([1]; KRAS G12D-GppNHp/RAF1 RBD HTRF) | IC50 ([2]; KRAS G12R-GppNHp/RAF1 RBD HTRF) | IC50 (GP2d cells (KRAS G12D)) | IC50 (SW620 cells (KRAS G12V)) | IC50 ([3]; KRAS WT-GppNHp/RAF1 RBD HTRF) | IC50 ([4]; KRAS G12V-GppNHp/RAF1 RBD HTRF) | IC50 [1, 5] | IC50 [2, 6] | IC50 (GP2d cells (KRAS G12D); class symbols) | IC50 (SW620 cells (KRAS G12V); class symbols) | IC50 [3, 7] | IC50 [4, 8] | SMILES
100 to 1000 nM | 1000 to 10000 nM | < 100 nM | < 100 nM | 100 to 1000 nM | 1000 to 10000 nM |  |  |  |  |  |  | C[C@H]1[C@H](N(C)c2nc(OC[C@@]34CCCN3C[C@H](F)C4)nc3c(F)c(-c4ccc(F)c5sc(N)c(C#N)c45)c(C(F)(F)F)cc23)CCN1C(=O)C1CC1 [Compound 301]
100 to 1000 nM | 100 to 1000 nM | < 100 nM | < 100 nM | 100 to 1000 nM | 1000 to 10000 nM |  |  |  |  |  |  | CN1CC[C@H](N(C)c2nc(OC[C@@]34CCCN3C[C@H](F)C4)nc3c(F)c(-c4ccc(F)c5sc(N)c(C#N)c45)c(C(F)(F)F)cc23)CC1=O [Compound 281]
 |  |  |  |  |  | < 100 nM | < 100 nM | < 100 nM | < 100 nM | < 100 nM | < 100 nM | CN(c1nc(OC[C@@]23CCCN2C[C@H](F)C3)nc2c(F)c(-c3ccc(F)c4sc(N)c(C#N)c34)c(C(F)(F)F)cc12)[C@H]1CC(=O)N(C2CC2)C1 (atropisomer, axis not shown) [Compound 616]
1000 to 10000 nM | > 10000 nM | 100 to 1000 nM | 100 to 1000 nM | 1000 to 10000 nM | > 10000 nM |  |  |  |  |  |  | CCC(=O)N1CC[C@@H](N(C)c2nc(OC[C@]34CCCN3C[C@H](F)C4)nc3c(F)c(-c4ccc(F)c5sc(N)c(C#N)c45)c(C(F)(F)F)cc23)[C@H]1C (atropisomer, axis not shown) [Compound 336]
